The test system of the experiment is IL-4 stimulated expression of CD23 in human Ramos B cells (JAK-1 and JAK-3). Nature of the experiment: Assay for Ramos B-Cell Line Stimulated with IL-4 (CD23 upregulation, FACS). Type of experiment: cell-based. The conditions noted are these: read-out: IC50, Example 41. From the text:
One means of assaying for such inhibition is detection of the effect of the 2,4-substituted pyrimidinediamine compounds on the upregulation of downstream gene products. In the Ramos/IL4 assay, B-cells are stimulated with the cytokine Interleukin-4 (IL-4) leading to the activation of the JAK/Stat pathway through phosphorylation of the JAK family kinases, JAK1 and JAK3, which in turn phosphorylate and activate the transcription factor Stat-6. […] To study the effect of inhibitors (e.g., the 2,4-substituted pyrimindinediamine compounds described herein) on the JAK1 and JAK3 kinases, human Ramos B cells are stimulated with human IL-4. Twenty to 24 hours post stimulation, cells are stained for upregulation of CD23 and analyzed using flow cytometry (FACS). […] An exemplary assay of this type is described in greater detail in Example 41
B-cells stimulated with cytokine Interleukin-4 (IL-4) activate the JAK/Stat pathway through phosphorylation of the JAK family kinases, JAK-1 and JAK-3, which in turn phosphorylate and activate the transcription factor Stat-6. […] To study the effect of inhibitors on the JAK family kinases, human Ramos B cells are stimulated with human IL-4.
The Ramos B-cell line was acquired from ATCC (ATCC Catalog No. CRL-1596). The cells were cultured in RPMI 1640 (Cellgro, MediaTech, Inc., Herndon, VA, Cat No. 10-040-CM) with 10% fetal bovine serum (FBS), heat inactivated (JRH Biosciences, Inc, Lenexa, Kansas, Cat No. 12106-500M) according to ATCC propagation protocol. Cells were maintained at a density of 3.5×10^5. The day before the experiment, Ramos B-cells were diluted to 3.5×10^5 cells/mL to ensure that they were in a logarithmic growth phase.
Cells were spun down and suspended in RPMI with 5% serum. 5×10^4 cells were used per point in a 96-well tissue culture plate. Cells were pre-incubated with compound or DMSO (Sigma-Aldrich, St. Louis, MO, Cat No. D2650) vehicle control for 1 hour in a 37° C. incubator. Cells were then stimulated with IL-4 (Peprotech Inc., Rocky Hill, NJ, Cat No. 200-04) for a final concentration of 50 units/mL for 20-24 hours. Cells were then spun down and stained with anti-CD23-PE(BD Pharmingen, San Diego, CA, Cat No. 555711) and analyzed by FACS. Detection was performed using a BD LSR I System Flow Cytometer, purchased from Becton Dickinson Biosciences of San Jose, California The IC50 calculated based on the results of this assay are provided in TABLE XII.

Setting [1] is: Ramos B-cell line stimulated with IL-4, CD23 expression by FACS.
[2] abbreviates: Ramos B cells stimulated with IL-4, CD23 expression by FACS.
The mark [3] stands for this setting: Homo sapiens, Ramos, Ramos B-cell line stimulated with IL-4, CD23 expression by FACS.
The mark [4] stands for this setting: Ramos B-cell line stimulated with IL-4, CD23 expression by FACS, sodium salt.

As usually defined, the IC50 is the midpoint of a concentration-inhibition curve.

Where a name gives a salt, the structure may show the parent alone. Read-outs that look alike come from different tables or passages of the source.

Consider “5-Fluoro-N4-(4-[3-methyl-1,2,4-oxadiazol-5-yl]methyleneoxyphenyl)-N2-(5-piperidinesulfonylphenyl)-2,4-pyrimidinediamine [Compound I-272]”, for which the IC50 under setting [1] is 788 nM.
As to `COc1ccc(CN2C(=O)C(C)Oc3ccc(Nc4nc(Nc5cccc(S(N)(=O)=O)c5)ncc4F)cc32)cc1` (racemic) [Compound V-5, Racemic N2-(3-Aminosulphonylphenyl)-5-fluoro-N4-[2-methyl-3-oxo-4-(4-methoxybenzyl)-benz[1,4]oxazin-6-yl]-2,4-pyrimidinediamine], under setting [2], the IC50 was 696 nM.
Turning to `COc1ccc(CN2C(=O)C(C)Sc3ccc(Nc4nc(Nc5ccc(C)c(S(N)(=O)=O)c5)ncc4F)cc32)cc1` (racemic) [Compound V-9, (R/S)-N2-(3-Aminosulphonyl-4-methylphenyl)-5-fluoro-N4-[2-methyl-3-oxo-4-(4-methoxybenzyl)-benzo[1,4]thiazin-6-yl]-2,4-pyrimidinediamine], the IC50 (Homo sapiens, Ramos, Ramos B cells stimulated with IL-4, CD23 expression by FACS) was determined as 1110 nM.
With `Cc1ccc(Nc2ncc(F)c(NC3CNCCC3C)n2)cc1S(N)(=O)=O` (racemic) [VII-4, Racemic N2-(3-aminosulfonyl-4-methylphenyl)-5-fluoro-N4-(4-methylpiperidin-3-yl)-2,4-pyrimidinediamine], the IC50 under setting [2] came to 2490 nM.
The same measure, in the same setting: under `Cc1ccc(Nc2ncc(F)c(NC3CN(C(=O)CC#N)CCC3C)n2)cc1S(N)(=O)=O` (racemic) [VII-5, Racemic N2-(3-aminosulfonyl-4-methylphenyl)-N4-(1-cyanomethylenecarbonyl-4-methylpiperidin-3-yl)-5-fluoro-2,4-pyrimidinediamine] stands 4130 nM.
As to `COc1cc(Nc2nc(Nc3ccc(C)c(S(N)(=O)=O)c3)ncc2F)cc(OCC#N)c1OC` [Compound I-2, N2-(3-Aminosulphonyl-4-methylphenyl)-N4-(3-cyanomethoxy-4,5-dimethoxyphenyl)-5-fluoro-2,4-pyrimidinediamine], the IC50 under setting [3] was 532 nM.
As for `CCC(=O)NS(=O)(=O)c1cc(Nc2ncc(F)c(Nc3ccc(OCC#N)cc3)n2)ccc1C` [Compound I-31, N4-(4-Cyanomethyleneoxy)phenyl-5-fluoro-N2-(4-methyl-3-propionylaminosulfonyl)phenyl-2,4-pyrimidinediamine sodium salt], the IC50 under setting [4] amounted to 4630 nM.
`CC(=O)NS(=O)(=O)c1cc(Nc2ncc(F)c(Nc3ccc(OCC#N)cc3)n2)ccc1C` [Compound I-36, N2-(3-Acetylaminosulfonyl-4-methyl)phenyl-N4-(4-cyanomethyleneoxy)phenyl-5-fluoro-2,4-pyrimidinediamine]: the IC50 under setting [1] is 8800 nM.
For the molecule `CC(=O)NS(=O)(=O)c1cc(Nc2ncc(F)c(Nc3ccc(OCC#N)cc3)n2)ccc1C` [Compound I-38, N2-(3-Acetylaminosulfonyl-4-methyl)phenyl-N4-(4-cyanomethyleneoxy)phenyl-5-fluoro-2,4-pyrimidinediamine sodium salt], the IC50 under setting [4] came to 6440 nM.
In the case of `N#CCOc1ccc(Nc2nc(Nc3cccc(S(N)(=O)=O)c3)ncc2F)cc1Cl` [Compound I-42, N2-(3-Aminosulfonylphenyl)-N4-(3-chloro-4-cyanomethoxyphenyl)-5-fluoro-2,4-pyrimidinediamine], under setting [3], the IC50 amounted to 24.1 nM.
Still for that read-out and setting: under `CCC(=O)NS(=O)(=O)c1cc(Nc2ncc(F)c(Nc3ccc(OCC#N)c(F)c3)n2)ccc1C` [Compound I-48, N4-(4-Cyanomethoxy-3-fluorophenyl)-5-fluoro-N2-(4-methyl-3-propionylaminosulfonylphenyl)-2,4-pyrimidinediamine] stands 1400 nM.
Take `COc1cc(Nc2nc(Nc3cccc(S(N)(=O)=O)c3)ncc2F)ccc1NC(=O)CC#N` [Compound I-84, N2-(3-Aminosulfonylphenyl)-5-fluoroN4-[3-methoxy-4-(N-cyanoacetyl)aminophneyl]-2,4-pyrimidinediamine]: the IC50 under setting [1] turned out to be 1400 nM.
Still for that read-out and setting: the same measure for `COc1cc(Nc2nc(Nc3ccc(C)c(S(N)(=O)=O)c3)ncc2F)ccc1NC(=O)CC#N` [Compound I-85, N2-(3-Aminosulfonyl-4-methylphenyl)-5-fluoroN4-[3-methoxy-4-(N-cyanoacetyl)aminophneyl]-2,4-pyrimidinediamine]: 791 nM.

The record behind these values is patent publication US11827628B2, “Compositions and methods for inhibition of the JAK pathway” (Rigel Pharmaceuticals, Inc., priority 2005, dated 2023).
